Data as given in ChEMBL document CHEMBL1201862, “PubChem BioAssay data set” (2004).
Activity calls are given as the source filed them.

Assays:
BJ [1] = assay: BJ-TERT fibroblast viability loss – cell-based, RAS-independent, luminescence, dose response (AID 1933); assay type: functional; conditions: Homo sapiens
Vero [2] = assay: mammalian cell viability reduction – secondary assay, cytotoxicity control for West Nile virus antiviral project, dose response (AID 1650); assay type: functional; conditions: Chlorocebus sabaeus
BJ [3] = assay: cells; assay type: functional, cell-based; conditions: Homo sapiens
BJ [4] = assay: BJ-TERT-LT-ST fibroblast viability loss – cell-based, RAS-independent, luminescence, dose response (AID 1935); assay type: functional; conditions: Homo sapiens;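 also: BJ fibroblasts immortalized with TERT plus LT and ST oncogenes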
[5] = DRD fibroblast viability loss – cell-based, non-viral oncogenic, luminescence, dose response (AID 1934); assay type: functional; conditions: Homo sapiens
BJ [6] = assay: growth inhibition of engineered Ras-driven BJ cells – cell-based, alamar blue fluorescence, cherrypicked samples, dose response (AID 2631); assay type: functional; conditions: Homo sapiens;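 also: confirmatory dose-response assay in RAS-dependent BJ fibroblasts engineered with TERT, LT and ST, with cytotoxicity read by fluorescence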
[7] = target: Dual specificity tyrosine-phosphorylation-regulated kinase 1A (Rattus norvegicus, UniProt Q63470); assay type: biochemical, Homo sapiens
[8] = cytotoxicity toward MDA-MB-231 breast cancer cells – cell-based, CellTiter-Glo luminescence, cherry-pick, cytotoxicity control for RAD54 inhibitor project, dose response (AID 651692); assay type: functional
[9] = target: DNA repair and recombination protein RAD54-like (Homo sapiens, UniProt Q92698); assay: RAD54 Holliday junction migration blockers – biochemical, fluorescence, cherry-picked samples, dose series, confirmation (AID 651657); assay type: functional
DNA repair and recombination protein RAD54-like, sequence (Q92698 whole entry): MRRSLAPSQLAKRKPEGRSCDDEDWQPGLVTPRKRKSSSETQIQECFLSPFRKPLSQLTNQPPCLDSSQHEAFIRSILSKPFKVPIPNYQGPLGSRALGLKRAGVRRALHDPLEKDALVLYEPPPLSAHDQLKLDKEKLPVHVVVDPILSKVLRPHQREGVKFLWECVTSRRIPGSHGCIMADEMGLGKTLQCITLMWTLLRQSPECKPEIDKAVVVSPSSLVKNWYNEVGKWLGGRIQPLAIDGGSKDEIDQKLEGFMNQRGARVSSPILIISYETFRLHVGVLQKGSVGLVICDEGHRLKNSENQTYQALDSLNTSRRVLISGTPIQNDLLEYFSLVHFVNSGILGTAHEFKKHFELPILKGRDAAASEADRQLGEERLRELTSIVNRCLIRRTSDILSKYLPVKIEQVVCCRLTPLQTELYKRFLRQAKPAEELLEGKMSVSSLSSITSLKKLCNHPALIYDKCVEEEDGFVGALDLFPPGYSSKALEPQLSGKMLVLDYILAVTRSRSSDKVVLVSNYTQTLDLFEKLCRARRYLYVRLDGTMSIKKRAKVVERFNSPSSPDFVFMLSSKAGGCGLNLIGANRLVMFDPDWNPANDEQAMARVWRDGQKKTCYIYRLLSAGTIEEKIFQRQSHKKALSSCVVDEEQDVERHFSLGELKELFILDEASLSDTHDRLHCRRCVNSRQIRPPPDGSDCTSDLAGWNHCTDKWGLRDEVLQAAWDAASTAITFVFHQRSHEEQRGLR

[10] = target: DNA repair protein RAD52 homolog (Homo sapiens, UniProt P43351); assay type: functional, biochemical
DNA repair protein RAD52 homolog, sequence (P43351 whole entry): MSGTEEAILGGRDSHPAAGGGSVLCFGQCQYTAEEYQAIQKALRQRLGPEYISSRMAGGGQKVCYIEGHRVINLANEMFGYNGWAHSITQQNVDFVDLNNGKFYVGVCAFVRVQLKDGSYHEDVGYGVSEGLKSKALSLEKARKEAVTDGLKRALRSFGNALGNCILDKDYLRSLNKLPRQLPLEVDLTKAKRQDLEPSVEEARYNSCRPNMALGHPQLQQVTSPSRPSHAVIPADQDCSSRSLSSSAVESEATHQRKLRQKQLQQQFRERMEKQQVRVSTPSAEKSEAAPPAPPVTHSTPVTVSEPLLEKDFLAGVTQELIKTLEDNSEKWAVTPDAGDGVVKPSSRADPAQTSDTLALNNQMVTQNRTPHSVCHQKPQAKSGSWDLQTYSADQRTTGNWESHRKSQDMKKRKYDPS

INS1 [11] = assay: beta-cell survival under cytokine stress – INS-1E, ATP luminescence, dry powder, dose response (AID 488844); assay type: functional, cell-based; conditions: Rattus norvegicus
[12] = suppression of NO production in INS-1E cells – cell-based, Griess absorbance, dry powder, set 3, dose response (AID 488870); assay type: functional; conditions: Rattus norvegicus
INS1 [13] = assay: suppression of NO production in INS-1E cells – cell-based, Griess absorbance, dry powder, set 2, dose response (AID 488868); assay type: functional; conditions: Rattus norvegicus
INS1 [14] = assay: INS-1E mitochondrial potential rescue under cytokines – cell-based, JC-1 fluorescence ratio, dry powder, dose response (AID 488931); assay type: functional; conditions: Rattus norvegicus
[15] = NIH-3T3 fibroblast cytotoxicity, dose response, cytotoxicity control, cell-based, fluorescence, Alamar Blue, secondary assay (AID 2327); assay type: functional;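 also: NIH-3T3 mouse fibroblasts cultured with fluconazole at 8 µg/mL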
HEK293 [16] = assay: inhibition of NOD1-driven NF-kB reporter – cell-based, luminescence, uHTS, primary screen (AID 1578); assay type: functional; conditions: Homo sapiens
[17] = test system: Streptococcus sp. 'group A'; assay: Streptococcus pyogenes SK(-)GAS viability under kanamycin – luminescence, BacTiterGlo, confirmation, counter-screen for streptokinase expression inhibitor project, dose response (AID 1900); assay type: functional, organism-based
HEK293 [18] = assay: cells; assay type: functional, cell-based; conditions: Homo sapiens
Streptokinase A = target: T1, Streptokinase A (Streptococcus pyogenes serotype M1, UniProt P10520); assay: viability-normalized secreted streptokinase activity reduction – plasminogen activation absorbance, OD405, dose response (AID 1914); assay type: functional, Streptococcus pyogenes M1 GAS;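 also: secreted streptokinase activity via plasminogen activation per viability signal from cell pellet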
T1 sequence (P10520 whole entry): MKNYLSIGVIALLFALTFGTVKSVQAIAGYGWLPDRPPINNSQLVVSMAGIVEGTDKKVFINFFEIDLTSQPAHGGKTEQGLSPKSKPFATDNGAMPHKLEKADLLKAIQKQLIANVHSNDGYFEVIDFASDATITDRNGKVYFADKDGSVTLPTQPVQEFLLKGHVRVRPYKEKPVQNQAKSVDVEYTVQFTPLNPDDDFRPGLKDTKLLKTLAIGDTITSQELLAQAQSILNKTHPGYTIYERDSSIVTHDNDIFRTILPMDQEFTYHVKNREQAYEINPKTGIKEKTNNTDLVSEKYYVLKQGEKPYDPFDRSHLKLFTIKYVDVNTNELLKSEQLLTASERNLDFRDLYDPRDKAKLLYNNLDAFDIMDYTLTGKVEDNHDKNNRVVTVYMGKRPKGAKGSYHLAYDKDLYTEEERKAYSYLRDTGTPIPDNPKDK

[19] = fluconazole-exposed Candida albicans growth modulators – fluorescence, retest, confirmation (AID 2467); assay type: functional, cell-based
HEK293 [20] = assay: cells; assay type: functional, cell-based; conditions: Homo sapiens; remark: listed apart in the source
HEK293 [21] = assay: NOD2 signaling inhibitors in MDP-stimulated cells, cell-based, uHTS, luminescence (AID 2001); assay type: functional; conditions: Homo sapiens
[22] = target: Serine/threonine-protein phosphatase (Candida dubliniensis (strain CD36 / CBS 7987 / NCPF 3949 / NRRLY-17841) (Yeast), UniProt B9W6M3); assay: blockers of CaCl2-induced CDRE-lacZ signaling – S. cerevisiae, luminescence, secondary, dose response (AID 2388); assay type: functional, cell-based;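 also: yeast reporter cells carrying a calcineurin-responsive lacZ construct stimulated with calcium chloride; luminescent beta-galactosidase reporter signal in whole cells rather than isolated phosphatase activity; potency for inhibition where a drop in reporter signal means calcineurin blockade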
Serine/threonine-protein phosphatase, sequence (B9W6M3 whole entry): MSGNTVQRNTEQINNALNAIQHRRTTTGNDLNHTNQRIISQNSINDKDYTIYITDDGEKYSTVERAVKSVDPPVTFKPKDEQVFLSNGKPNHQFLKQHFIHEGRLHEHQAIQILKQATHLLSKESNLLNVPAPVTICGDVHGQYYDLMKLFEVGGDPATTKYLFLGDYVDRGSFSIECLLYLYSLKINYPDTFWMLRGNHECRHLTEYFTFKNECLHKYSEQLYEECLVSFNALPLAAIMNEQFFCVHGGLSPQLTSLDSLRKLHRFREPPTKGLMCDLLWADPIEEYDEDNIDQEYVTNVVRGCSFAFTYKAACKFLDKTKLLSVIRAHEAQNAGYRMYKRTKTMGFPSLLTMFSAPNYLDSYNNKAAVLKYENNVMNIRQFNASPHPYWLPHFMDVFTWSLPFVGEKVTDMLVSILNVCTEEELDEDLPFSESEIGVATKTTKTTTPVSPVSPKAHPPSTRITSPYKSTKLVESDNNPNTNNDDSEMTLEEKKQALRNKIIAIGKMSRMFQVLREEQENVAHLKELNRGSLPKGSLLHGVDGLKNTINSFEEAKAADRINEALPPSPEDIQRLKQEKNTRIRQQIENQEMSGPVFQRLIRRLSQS

Streptococcus = assay: GAS UMAA2166 growth inhibition – luminescence, BacTiterGlo, counter-screen for streptokinase expression inhibitor project, dose response (AID 1915); assay type: functional, organism-based;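 also: potency for reduction of bacterial viability or growth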
Tumor necrosis factor = Tumor necrosis factor (Homo sapiens, UniProt P01375); assay: analog potency on TNFa NF-kB signaling – cell-based, revised, SAR follow-up (AID 2337); assay type: functional
Tumor necrosis factor, sequence (P01375 whole entry, the tested form may be a part): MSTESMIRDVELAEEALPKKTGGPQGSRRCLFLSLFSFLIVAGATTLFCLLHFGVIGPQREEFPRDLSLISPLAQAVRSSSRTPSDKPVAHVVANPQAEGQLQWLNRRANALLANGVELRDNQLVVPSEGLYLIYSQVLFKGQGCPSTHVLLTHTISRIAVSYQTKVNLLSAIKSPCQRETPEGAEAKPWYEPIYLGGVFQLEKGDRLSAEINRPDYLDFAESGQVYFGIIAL

[23] = target: Nucleotide-binding oligomerization domain-containing protein 1 (Homo sapiens, UniProt Q9Y239); assay: blockers of NOD1 pathway activity – revised, SAR follow-up (AID 2333); assay type: functional
[24] = target: Nucleotide-binding oligomerization domain-containing protein 2 (Homo sapiens, UniProt Q9HC29); assay: PubChem AID 2334; assay type: functional
[25] = target: ATP-dependent molecular chaperone HSP82 (Candida albicans (strain WO-1) (Yeast), UniProt C4YTQ8); assay: steroid-induced GRE reporter decrease in yeast – S. cerevisiae, luminescence, Hsp90 inhibitor project, dose response (AID 2400); assay type: functional, cell-based;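 also: beta-galactosidase luminescence from glucocorticoid response element reporter as proxy for Hsp90 function; inhibitor potency where signal loss means Hsp90 inhibition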
ATP-dependent molecular chaperone HSP82, sequence (C4YTQ8 whole entry, the tested form may be a part): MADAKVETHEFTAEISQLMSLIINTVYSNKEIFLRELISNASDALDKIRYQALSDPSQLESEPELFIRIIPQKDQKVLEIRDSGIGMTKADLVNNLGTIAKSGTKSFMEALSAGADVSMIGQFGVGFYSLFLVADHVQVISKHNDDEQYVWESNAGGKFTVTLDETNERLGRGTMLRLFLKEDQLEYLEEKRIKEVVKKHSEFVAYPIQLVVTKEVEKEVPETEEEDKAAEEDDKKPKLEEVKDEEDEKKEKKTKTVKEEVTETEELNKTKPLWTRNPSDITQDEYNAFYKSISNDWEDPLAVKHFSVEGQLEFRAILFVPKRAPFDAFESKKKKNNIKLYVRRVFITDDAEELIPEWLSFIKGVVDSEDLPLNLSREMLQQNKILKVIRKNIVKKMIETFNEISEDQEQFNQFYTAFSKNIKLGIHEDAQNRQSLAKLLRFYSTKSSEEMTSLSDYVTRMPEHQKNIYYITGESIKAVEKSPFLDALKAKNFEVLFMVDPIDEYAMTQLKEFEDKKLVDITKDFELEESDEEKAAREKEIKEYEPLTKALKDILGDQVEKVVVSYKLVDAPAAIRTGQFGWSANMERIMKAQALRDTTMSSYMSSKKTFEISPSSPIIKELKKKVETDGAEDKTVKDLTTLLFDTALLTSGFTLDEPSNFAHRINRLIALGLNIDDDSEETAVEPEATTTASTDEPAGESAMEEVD

[26] = target: T2, Carboxy-terminal domain RNA polymerase II polypeptide A small phosphatase 1 (Homo sapiens, UniProt Q9GZU7); assay: CTDSP1 inhibitors, concentration-response, biochemical, absorbance readout, ultra-high-throughput screen actives (AID 540297); assay type: functional
T2 sequence (Q9GZU7 whole entry): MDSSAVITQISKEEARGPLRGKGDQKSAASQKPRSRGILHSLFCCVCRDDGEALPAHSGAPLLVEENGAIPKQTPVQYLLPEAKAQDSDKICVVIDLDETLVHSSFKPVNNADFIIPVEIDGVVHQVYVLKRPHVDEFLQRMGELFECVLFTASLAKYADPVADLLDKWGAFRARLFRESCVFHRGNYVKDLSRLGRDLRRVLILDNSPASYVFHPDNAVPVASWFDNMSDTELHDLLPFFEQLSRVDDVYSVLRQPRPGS

[27] = target: T3, Corticotropin-releasing factor receptor 2/Corticotropin-releasing factor-binding protein (Homo sapiens, UniProt P24387+Q13324); assay: Dose Response confirmation of uHTS hits for small molecule antagonists of the CRF-binding protein and CRF-R2 receptor complex.; assay type: functional; conditions: read-out: IC50_Mean
T3 sequence (Q13324 whole entry): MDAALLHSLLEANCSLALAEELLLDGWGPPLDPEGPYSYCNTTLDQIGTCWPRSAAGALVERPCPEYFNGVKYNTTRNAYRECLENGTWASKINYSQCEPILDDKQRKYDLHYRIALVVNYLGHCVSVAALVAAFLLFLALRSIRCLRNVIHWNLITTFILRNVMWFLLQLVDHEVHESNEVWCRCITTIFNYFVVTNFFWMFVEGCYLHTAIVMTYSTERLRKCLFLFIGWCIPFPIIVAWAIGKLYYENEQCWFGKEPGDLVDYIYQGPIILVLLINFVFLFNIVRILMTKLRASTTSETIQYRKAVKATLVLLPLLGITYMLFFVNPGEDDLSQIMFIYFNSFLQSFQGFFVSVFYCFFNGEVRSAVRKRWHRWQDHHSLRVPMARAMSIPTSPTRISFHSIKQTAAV
T3 sequence (P24387 whole entry): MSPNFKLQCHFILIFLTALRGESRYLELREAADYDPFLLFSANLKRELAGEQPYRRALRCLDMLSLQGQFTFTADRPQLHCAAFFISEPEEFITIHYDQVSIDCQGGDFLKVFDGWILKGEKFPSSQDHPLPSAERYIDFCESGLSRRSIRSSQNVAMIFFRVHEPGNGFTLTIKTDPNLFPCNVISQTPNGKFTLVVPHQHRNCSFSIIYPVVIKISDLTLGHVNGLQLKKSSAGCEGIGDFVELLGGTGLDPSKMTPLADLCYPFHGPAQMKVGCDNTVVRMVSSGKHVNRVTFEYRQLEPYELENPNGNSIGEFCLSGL

[28] = target: T3, Corticotropin-releasing factor receptor 2/Corticotropin-releasing factor-binding protein; assay: activators of CRF receptor 2 with binding protein – uHTS hits, confirmation (AID 602473); assay type: functional; conditions: read-out: EC50_Mean
[29] = blockers of CRF-binding protein–CRF-R2 complex – cell-based, uHTS hits, 384-well, dose response (AID 651639); assay type: functional, Homo sapiens; conditions: read-out: IC50_Mean
HEK293 [30] = assay: cells; conditions: Homo sapiens
NIH3T3 = assay: mammalian cell viability counter-check – Alamar Blue, fluconazole, dry powder, cytotoxicity control for antifungal drug resistance project, dose response (AID 488809); assay type: functional, cell-based; conditions: Mus musculus
[31] = target: Beta-2 adrenergic receptor (Homo sapiens, UniProt P07550); assay: ADRB2 activation measured by internalization – cell-based, FAP fluorogen, flow cytometry, cherry pick 1, dose response (AID 588763); assay type: functional
Vero [32] = assay: Vero E6 cell cytotoxicity, dose response, cytotoxicity control (AID 540298); assay type: functional; conditions: Chlorocebus sabaeus
MDCK [33] = assay: MDCK cell cytotoxicity, dose response, cytotoxicity control (AID 540296); assay type: functional; conditions: Canis lupus familiaris
MDCK [34] = assay: antiviral activity against H1N1 influenza, dose response, cell-based, strain KY136 (AID 540257); assay type: functional; conditions: Canis lupus familiaris
Phospholipase D1 = Phospholipase D1 (Homo sapiens, UniProt Q13393); assay: cellular phospholipase D1 inhibition IC50 – cell-based, dose response (AID 602151); assay type: functional;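 also: cellular PLD1 assay in Calu-1 cells stimulated with PMA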
Phospholipase D1, sequence (Q13393 whole entry): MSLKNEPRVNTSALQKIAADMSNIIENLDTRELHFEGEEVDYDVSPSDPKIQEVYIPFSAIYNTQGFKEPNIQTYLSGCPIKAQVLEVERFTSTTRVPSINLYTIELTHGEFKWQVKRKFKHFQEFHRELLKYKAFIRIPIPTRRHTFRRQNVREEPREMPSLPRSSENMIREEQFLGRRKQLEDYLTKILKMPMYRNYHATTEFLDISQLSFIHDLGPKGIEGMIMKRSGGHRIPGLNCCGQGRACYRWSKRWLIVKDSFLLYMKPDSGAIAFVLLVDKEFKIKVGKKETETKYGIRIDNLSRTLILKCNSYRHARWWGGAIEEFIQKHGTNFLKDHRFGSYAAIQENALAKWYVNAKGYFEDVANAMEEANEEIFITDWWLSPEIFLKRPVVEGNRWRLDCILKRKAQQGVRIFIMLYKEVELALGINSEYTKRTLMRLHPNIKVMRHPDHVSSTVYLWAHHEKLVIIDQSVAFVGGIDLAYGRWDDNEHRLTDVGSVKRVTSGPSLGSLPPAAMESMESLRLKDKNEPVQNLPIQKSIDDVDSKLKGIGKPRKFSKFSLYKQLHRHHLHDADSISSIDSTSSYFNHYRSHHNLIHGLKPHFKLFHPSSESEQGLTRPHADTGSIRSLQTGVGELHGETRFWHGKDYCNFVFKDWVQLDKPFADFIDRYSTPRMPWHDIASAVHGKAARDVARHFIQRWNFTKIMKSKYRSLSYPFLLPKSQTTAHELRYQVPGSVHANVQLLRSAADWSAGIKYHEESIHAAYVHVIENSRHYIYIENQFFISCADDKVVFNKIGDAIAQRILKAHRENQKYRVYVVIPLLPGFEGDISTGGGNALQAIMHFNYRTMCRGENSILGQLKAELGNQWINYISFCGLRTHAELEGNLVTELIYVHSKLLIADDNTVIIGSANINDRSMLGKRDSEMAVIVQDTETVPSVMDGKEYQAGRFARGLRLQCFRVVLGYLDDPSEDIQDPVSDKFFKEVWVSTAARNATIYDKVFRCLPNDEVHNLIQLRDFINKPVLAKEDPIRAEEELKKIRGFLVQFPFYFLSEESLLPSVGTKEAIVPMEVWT

Phospholipase D2 = Phospholipase D2 (Homo sapiens, UniProt O14939); assay: cellular phospholipase D2 inhibition IC50 – cell-based, dose response (AID 602147); assay type: functional;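 also: cellular assay in HEK293 cells overexpressing GFP-tagged PLD2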
Phospholipase D2, sequence (O14939 whole entry): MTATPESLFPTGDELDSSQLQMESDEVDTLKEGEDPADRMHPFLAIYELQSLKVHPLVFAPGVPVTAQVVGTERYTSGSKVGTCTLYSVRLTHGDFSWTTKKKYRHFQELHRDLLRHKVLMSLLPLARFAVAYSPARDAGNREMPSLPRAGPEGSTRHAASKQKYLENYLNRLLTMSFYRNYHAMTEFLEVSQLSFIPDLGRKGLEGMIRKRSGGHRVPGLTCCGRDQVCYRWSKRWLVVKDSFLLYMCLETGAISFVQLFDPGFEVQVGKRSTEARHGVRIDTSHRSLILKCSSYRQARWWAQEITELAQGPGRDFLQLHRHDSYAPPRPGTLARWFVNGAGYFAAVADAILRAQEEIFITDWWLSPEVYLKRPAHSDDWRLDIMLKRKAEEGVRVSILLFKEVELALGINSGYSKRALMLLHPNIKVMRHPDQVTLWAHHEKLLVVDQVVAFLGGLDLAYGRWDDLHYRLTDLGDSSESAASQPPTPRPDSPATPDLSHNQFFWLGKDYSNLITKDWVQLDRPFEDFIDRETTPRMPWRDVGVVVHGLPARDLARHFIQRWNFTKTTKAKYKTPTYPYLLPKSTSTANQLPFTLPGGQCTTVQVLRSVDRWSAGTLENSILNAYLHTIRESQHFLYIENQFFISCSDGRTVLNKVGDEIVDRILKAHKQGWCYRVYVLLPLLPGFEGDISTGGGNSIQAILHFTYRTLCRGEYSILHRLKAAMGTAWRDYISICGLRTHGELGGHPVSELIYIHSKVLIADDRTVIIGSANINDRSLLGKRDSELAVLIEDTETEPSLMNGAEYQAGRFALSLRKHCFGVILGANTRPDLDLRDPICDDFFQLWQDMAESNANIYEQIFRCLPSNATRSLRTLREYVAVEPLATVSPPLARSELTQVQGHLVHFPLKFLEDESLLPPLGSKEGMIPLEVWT

[35] = target: T4, Endoribonuclease toxin MazF (Escherichia coli K-12, UniProt P0AE70); assay: activation of MazEF endoribonuclease cleavage – biochemical, fluorescence, single-stranded RNA substrate, uHTS hits, dose response (AID 588481); assay type: functional
T4 sequence (P0AE70 whole entry): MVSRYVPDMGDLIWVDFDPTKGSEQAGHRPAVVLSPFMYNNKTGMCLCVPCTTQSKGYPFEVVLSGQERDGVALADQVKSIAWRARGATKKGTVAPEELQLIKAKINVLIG

[36] = target: T4, Endoribonuclease toxin MazF; assay: substrate-only fluorescence increase artefacts – biochemical, single-stranded RNase substrate, counter-screen for MazEF activator project, dose response (AID 588502); assay type: functional

Structure (SMILES): Nc1nc(N)c2c(ccc3[nH]ccc32)n1
- EC50 (BJ [1]): 112 µM (active)
- CC50 (Vero [2]): 5.14 µM (active)
- EC50 (BJ [3]): 4.8 µM (inconclusive)
- EC50 (BJ [4]): > 38 µM (not active)
- EC50 [5]: 14.4 µM (inconclusive)
- EC50 (BJ [6]): > 133 µM (inactive)
- AC50 [7]: 5.51 µM (active)
- AC50 [8]: 4.07 µM (active)
- AC50 [9]: 38.6 µM (active)
- AC50 [10]: 12 µM (active)

Structure (SMILES): COc1cccc(S(=O)(=O)N(C)C[C@@H]2Oc3c(NC(=O)Nc4cccc5ccccc45)cccc3C(=O)N([C@@H](C)CO)C[C@H]2C)c1
- AC50 (INS1 [11]): 77 µM (active)
- AC50 [12]: 29 µM (active)
- AC50 (INS1 [13]): 28.7 µM (active)
- AC50 (INS1 [14]): 98.9 µM (active)

Structure (SMILES): O=[N+]([O-])c1ccc(O)c(Nc2ncnc3ccc(Br)cc23)c1
- EC50 [15]: > 160 µM (inactive)
- EC50 (HEK293 [16]): 2.64 µM (active)
- EC50 [17]: 6.15 µM (active)
- IC50 (HEK293 [18]): > 20 µM (inactive)
- EC50 (Streptokinase A): > 150 µM (not active)
- EC50 [19]: 0.429 µM (active)
- IC50 (HEK293 [20]): > 20 µM (inactive)
- IC50 (HEK293 [21]): 18.8 µM (inactive)
- EC50 [22]: > 180 µM (inactive)
- EC50 (Streptococcus): 46.2 µM (active)
- IC50 (Tumor necrosis factor): 6.28 µM (active)
- IC50 [23]: 2.15 µM (active)
- IC50 [24]: 3.53 µM (active)
- EC50 [25]: > 160 µM (inactive)
- IC50 [26]: 5.46 µM (active)
- IC50 [27]: 5.76 µM (active)
- EC50 [28]: 5.78 µM (active)
- IC50 [29]: > 20 µM (inactive)
- IC50 (HEK293 [30]): > 20 µM (inactive)

Structure (SMILES): COc1ccc2c(c1)c1nc3n(c(=O)c1n2CC(=O)N1CCC(Cc2ccccc2)CC1)CCS3
- AC50 (NIH3T3): 207 µM (active)

Structure (SMILES): COc1ccc(CN2CCC(Oc3ccc(C(=O)N4CCCCC4)cc3)CC2)cc1C
- EC50 [31]: 25.3 µM (inactive)

Structure (SMILES): Cc1ccccc1NC(=O)/C(=C/c1ccco1)c1ccccc1
- CC50 (Vero [32]): > 40 µM (active)
- CC50 (MDCK [33]): > 40 µM (active)
- IC50 (MDCK [34]): 15.4 µM (active)

Structure (SMILES): O=C(NCCN1CCC(n2c(=O)[nH]c3cc(I)ccc32)CC1)c1ccc(Cl)cc1
- IC50 (Phospholipase D1): 0.005 µM (active)
- IC50 (Phospholipase D2): 0.345 µM (active)

Structure (SMILES): Cc1sc(NC(=O)CSc2nnc(N)[nH]2)c(C#N)c1C
- EC50 [35]: > 99 µM (inactive)
- EC50 [36]: > 99 µM (inactive)
